Calls of active or inactive are those of the source.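 How the source made its calls: active means minimum cell viability of 80% or lower across the dose range, counted as toxic; inactive means minimum cell viability above 80%.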
Experiments:
[1] = MAGI-CCR5 and HeLa-R5-16 cytotoxicity, dose response, cytotoxicity control for HIV-1 fusion inhibitor project, cell-based, MAGI and MAGI-HeLa co-culture (AID 2286); details: MAGI-CCR5 cells viability, CellTiter-Glo ATP luminescence; for minimum viability: measured here: MAGI minimum viability across doses;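 on all read-outs here: cells exposed to compound for at least 64 h before ATP readout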;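 on minimum viability: 100% = median of DMSO vehicle wells with no ATP signal meaning 0%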;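 on viability: 100% = median of DMSO vehicle wells with no ATP signal meaning 0%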
[2] = test system: MAGI-CCR5 cells viability, CellTiter-Glo ATP luminescence; experiment: as above
[3] = MAGI-HeLa co-culture viability, at 50 µM, stronger effect = lower value
[4] = measured here: MAGI + HeLa-R5-16 co-culture viability
[5] = at 3.13 µM, stronger effect = lower value
[6] = at 12.5 µM, stronger effect = lower value
[7] = at 6.25 µM, stronger effect = lower value

Structure (SMILES)	viability [1, 3] [%]	minimum viability ([1]; at 50 µM, stronger effect = lower value) [%]	viability ([1]; at 50 µM (top of the series))	other results
O=C(OCC1OC(n2ncc(=O)[nH]c2=O)C(OC(=O)c2ccccc2)C1OC(=O)c1ccccc1)c1ccccc1 (stereo unspecified)	111	44		CC50 [2]: 42.2 µM
O=S(=O)(Nc1nc2ccccc2nc1Nc1cccc(S(=O)(=O)N2CCCCC2)c1)c1ccccc1	23.4	21.9		CC50 [2]: 9.47 µM; CC50 [2, 4]: 18.8 µM
O=C(O)CN1C(=O)/C(=C\c2cc(Br)ccc2OCc2ccc(Cl)cc2Cl)SC1=S	37.6	93.8	93.8% (inactive)	CC50 [2, 4]: 25.6 µM
CC1(c2ccccc2)CC(C)(C)N2C(=O)/C(=C3\SC(=S)NC3=O)c3cccc1c32 (stereo unspecified)	40.9	22.5		CC50 [2]: 14.1 µM; CC50 [2, 4]: 37 µM
O=C(O)CCCCCN1C(=O)/C(=C\c2cn(-c3ccccc3)nc2-c2cccs2)SC1=S	54.7	47.2		CC50 [2]: 44.3 µM; CC50 [2, 4]: > 50 µM
O=C(NC(=S)Nc1ccccc1C(=O)O)c1ccc(-c2ccc(Br)cc2)o1	59.6	77.9		CC50 [2, 4]: > 50 µM
O=C(O)CCn1cc(/C=C/C(=O)c2ccc(Cl)cc2)c(-c2ccc(Br)cc2)n1	36.4	11.5		CC50 [2]: 30.7 µM; CC50 [2, 4]: 45.5 µM
O=C(O)CN1C(=O)/C(=C\c2cc(Br)ccc2OCc2ccc(Cl)cc2)SC1=S	52.4	90.5	90.5% (inactive)	CC50 [2, 4]: 48.6 µM
COc1cccc(OCCOc2ccc(/C=C3\C(=N)N4N=C(S(C)(=O)=O)SC4=NC3=O)cc2OC)c1	38		97.2% (inactive)	minimum viability [1, 5]: 91.2%; CC50 [2, 4]: 35.8 µM
O=C1/C(=C2\C(=O)N(Cc3ccc(F)cc3)c3ccccc32)SC(=S)N1CCS(=O)(=O)O	114	99.5	99.5% (inactive)	
O=C(CCCN1C(=O)/C(=C/c2cccs2)SC1=S)Nc1ccc(O)c(C(=O)O)c1	106	62.3		
Cc1ccc(-c2nn(-c3ccccc3)cc2/C=C2\SC(=S)N(CC(=O)O)C2=O)cc1	92.3		81.7% (inactive)	minimum viability ([1]; at 25 µM, stronger effect = lower value): 80.9%
O=C1NN(c2ccc(Cl)c(Cl)c2)C(=O)/C1=C/c1cccc(OC(=O)c2cccs2)c1	111		90.3% (inactive)	minimum viability ([1]; at 25 µM, stronger effect = lower value): 86.1%
COc1cc(/C=N/NS(=O)(=O)c2ccc3ccccc3c2)ccc1OCc1ccc(C(=O)O)cc1	115		93.7% (inactive)	minimum viability ([1]; at 25 µM, stronger effect = lower value): 85.7%
O=C(CN1C(=O)/C(=C2\SC(=S)N(CCS(=O)(=O)O)C2=O)c2ccccc21)Nc1cccc(Br)c1	113	83.3	83.3% (inactive)	
COc1cc(/C=C(\C#N)c2nc3ccc(C)cc3[nH]2)cc([N+](=O)[O-])c1O	90.4	74.1		
COc1cc(C(c2c(C(=O)O)[nH]c3ccccc23)c2c(C(=O)O)[nH]c3ccccc23)ccc1OCc1ccccc1	90.3		85.8% (inactive)	minimum viability [1, 6]: 82.7%
Cc1ccc(NC(=O)COc2cccc(/C=C3\SC(=S)N(CCC(=O)O)C3=O)c2)cc1Cl	94	77		
O=C(O)CN1C(=O)/C(=C\c2cccc(OCc3ccc(Cl)cc3Cl)c2)SC1=S	126		95.6% (inactive)	minimum viability [1, 6]: 80.7%
COc1ccc(C(=O)Nc2ccccc2C(=O)O)cc1NC(=O)C(c1ccccc1)c1ccccc1	116		99.7% (inactive)	minimum viability [1, 7]: 89.1%
COC(=O)c1sc(-c2ccc(C(C)(C)C)cc2)cc1NC(=O)COCC(=O)O	89	74.5		

Structure (SMILES)	viability [1, 3] [%]	minimum viability ([1]; at 50 µM, stronger effect = lower value) [%]	viability ([1]; at 50 µM (top of the series))	other results
O=c1oc2ccccc2c(O)c1C(c1ccc([N+](=O)[O-])cc1)c1c(O)c2ccccc2oc1=O	133	68.8		
O=C(O)COc1ccc(/C=N/NC(=O)c2ccc(-c3csc(Nc4ccc(Cl)cc4)n3)cc2)cc1	96.5		96.8% (inactive)	minimum viability ([1]; at 25 µM, stronger effect = lower value): 83.4%
O=C(O)c1[nH]c2ccccc2c1C(c1c(F)cccc1Cl)c1c(C(=O)O)[nH]c2ccccc12	114		104% (inactive)	minimum viability ([1]; at 0.1 µM, stronger effect = lower value): 87.9%
O=C(O)c1ccccc1NS(=O)(=O)c1ccc(NNC(=S)Nc2ccc(OC(F)F)cc2)c([N+](=O)[O-])c1	86.2		101% (inactive)	minimum viability [1, 5]: 93%
CCCCCc1c2c(cc(O)c1C(=O)O)OC(=O)c1c(cc(OC)cc1C(=O)CCCC)O2	82	84.4	84.4% (inactive)	
CCc1ccc(/C=C2\SC(=S)N(CCCC(=O)Nc3ccccc3C(=O)O)C2=O)cc1	90.6	70.3		
CCc1nnc(NS(=O)(=O)c2ccc(N/C=C(\C=O)c3nc4cc(Cl)ccc4o3)cc2)s1	99.2		90.2% (inactive)	minimum viability [1, 6]: 84.6%
CC(C)NC(=O)c1sc(=S)n2c1[nH]c(=O)c1ccc(C(=O)NCCc3ccc(Cl)cc3)cc12	104	55.2		
COc1ccc(-c2nn(-c3ccccc3)cc2/C=C\C(=O)Nc2ccc(C(=O)O)cc2)cc1	93.2	73		
CCOc1cc(/C=C2/C(=N)N3C(=NC2=O)SN=C3S(=O)(=O)C(C)C)ccc1OC(=O)c1ccco1	103		91.5% (inactive)	minimum viability [1, 6]: 86.8%
O=C1NC(=O)/C(=C/c2ccc(-c3cc(C(=O)O)ccc3Cl)o2)S1	105		91% (inactive)	minimum viability [1, 7]: 88.5%
COc1cc(/C=N/NC(=O)C(Cc2c[nH]c3ccccc23)NC(=O)OCc2ccccc2)cc([N+](=O)[O-])c1O (stereo unspecified)	107		95% (inactive)	minimum viability ([1]; at 25 µM, stronger effect = lower value): 92.5%
CC(C)CS(=O)(=O)C1=NN2C(=N)/C(=C\c3ccc(OC(=O)c4ccco4)cc3)C(=O)N=C2S1	104		96.6% (inactive)	minimum viability [1, 6]: 85.6%
COc1cc(/C=C2\C(=N)N3N=C(S(C)(=O)=O)SC3=NC2=O)cc(OC)c1OCCOc1ccccc1C	124		106% (inactive)	minimum viability [1, 6]: 102%
CCS(=O)(=O)C1=NSC2=NC(=O)/C(=C\c3ccc(OS(=O)(=O)c4ccccc4)cc3)C(=N)N21	85.9	74.9		
COc1ccc(C(=O)Oc2ccc(/C=N/Nc3ccc(Cl)c(C(=O)O)c3)cc2OC)cc1	104	80.5	80.5% (inactive)	
COc1ccccc1OCCOc1ccc(/C=C2\C(=N)N3N=C(S(C)(=O)=O)SC3=NC2=O)cc1	98.1	89.2	89.2% (inactive)	
CCOc1cc(/C=N/N=C2/NC(=O)C(CC(=O)O)S2)ccc1OCc1ccc(Cl)cc1Cl (stereo unspecified)	98.7		96% (inactive)	minimum viability [1, 6]: 83.9%
C=CCOc1ccc(C(c2c(C(=O)O)[nH]c3ccccc23)c2c(C(=O)O)[nH]c3ccccc23)cc1	89		91.1% (inactive)	minimum viability ([1]; at 25 µM, stronger effect = lower value): 85.9%
O=C(O)COc1ccc(Br)cc1C(c1c(C(=O)O)[nH]c2ccccc12)c1c(C(=O)O)[nH]c2ccccc12	95.6		91.8% (inactive)	minimum viability ([1]; at 25 µM, stronger effect = lower value): 88%
